The numbers were not newly measured in patent publication US11395819B1, “Antiviral and virucidal lung nebulizer compositions and related treatment methods” (priority 2021, dated 2022), which cites them from elsewhere.

Where a name gives a salt, the structure may show the parent alone.

Data set [1] concerns avian H7N9 influenza virus. The settings on record: mice.
For data set [2] the following is noted: given by inhalation.
Data set [3] has as its system divergent influenza A strains and influenza B strain.

Turning to `CN(C)CCC(c1ccc(Cl)cc1)c1ccccn1` (stereo not drawn) [Chlorpheniramine, chlorpheniramine maleate], the “protection from fatal challenge” value in data set [1] was “protects mice from fatal challenge”. Also, the bronchodilation entry in data set [2] was “significant bronchodilation”. In addition, the “inhibitory activity against influenza” value in data set [3] is listed as “potent inhibitory activity”.
